This assay addresses T1, human Cystic Fibrosis Transmembrane Conductance Regulator (CFTR) harboring the ΔF508 mutation (Homo sapiens, UniProt P13569, DEL508-508).
T1 construct: expressed in transfected cells; host or cells: H441 carcinoma line (G418-selected)
The assay is described as follows: H441 cell ΔF508-CFTR-HRP cell surface assay (Emax and EC50). The assay is classed as cell-based. To be noted: for Emax: NCI-H441, NA = Not active. From the text:
Example 315: H441 Cell Emax and EC50 Two cell lines were used, the H441 carcinoma line and the CFHBE41o- (41o-) human bronchial epithelial line. Both cell lines expressed human Cystic Fibrosis Transmembrane Conductance Regulator (CFTR) harboring the ΔF508 mutation and with an in-frame fusion in CFTR extracellular loop 4 of Horse Radish Peroxidase (HRP) under control of the CMV promoter. In the presence of the HRP tag, ΔF508-CFTR transported to the cell surface was detectable upon addition of an HRP substrate (Luminata Forte). Both cell types were cultivated at 37° C. with CO2. […] For both cell types, the medium was changed every other day unless the culture was at low % confluence. Cells were used for the assays at 75% confluence. To a polypropylene (PP) 384-well plate, 15 pls DMSO was added to all wells in columns 1-22 and 24 (low Control). 15 μls of 260 μM VX809 (Lumacaftor), Selleckchem […], was added to column 23 wells (high Control). 15 pls of 10 mM test compound or VX809 (control) were added to wells of row A. Serial dilutions of Row A compound were performed 2×15 pls in rows A through 0 (15-point). A PP, 384-well plate containing the appropriate cell culture medium was prepared for each assay plate with 100 pls per well. For the doxycycline-induced 41o-cells, doxycycline for both the assay plate and the medium dilution plate was added at 0.0005 mg/ml to the medium. Both cell lines were plated for the assay at 30 pls per 384-well at 3.4×10 e^5 cells per ml ( 10K cells/well). H441 cells were plated on opaque, white, Corning plate 3704. 41o-cells were plated on collagen-coated opaque, white, Corning plate 356665. For 41o-cells, doxycycline was added to the medium. Using FX (Beckman) protocol, 10 pls diluted compound or medium was added per well to the Assay Plate as: 2 pls DMSO Dilution plate well was diluted in 100 pls of the Medium Dilution Plate well, mixed, and 10 pls was transferred to the Assay Plate. The final assay dilution series was 24.5, 12.3, 6.1, 3.1, 1.5, 0.8, 0.4, 0.2, 0.1, 0.05, 0.02, 0.01, 0.006, 0.003, 0.001 and 0 μM. The 41o-assay plates were incubated at 37° C. w/CO2, the H441 assay plates were incubated at 27° C. w/CO2, each overnight for two nights. After being brought to room temperature, the assay plate liquid was removed. 30 uls of Luminata Forte (Millipore ELLUF0100) was added per well and incubated at room temperature for 10 min. The plates were then read on a Topcount, protocol LumiMatti (CPS, luminescence). The data was analyzed for % of maximum, maximum VX809 signal, and EC50 using Pearl and SPEED tools.

T1 sequence (P13569 with tags, fused parts or gaps DEL508-508): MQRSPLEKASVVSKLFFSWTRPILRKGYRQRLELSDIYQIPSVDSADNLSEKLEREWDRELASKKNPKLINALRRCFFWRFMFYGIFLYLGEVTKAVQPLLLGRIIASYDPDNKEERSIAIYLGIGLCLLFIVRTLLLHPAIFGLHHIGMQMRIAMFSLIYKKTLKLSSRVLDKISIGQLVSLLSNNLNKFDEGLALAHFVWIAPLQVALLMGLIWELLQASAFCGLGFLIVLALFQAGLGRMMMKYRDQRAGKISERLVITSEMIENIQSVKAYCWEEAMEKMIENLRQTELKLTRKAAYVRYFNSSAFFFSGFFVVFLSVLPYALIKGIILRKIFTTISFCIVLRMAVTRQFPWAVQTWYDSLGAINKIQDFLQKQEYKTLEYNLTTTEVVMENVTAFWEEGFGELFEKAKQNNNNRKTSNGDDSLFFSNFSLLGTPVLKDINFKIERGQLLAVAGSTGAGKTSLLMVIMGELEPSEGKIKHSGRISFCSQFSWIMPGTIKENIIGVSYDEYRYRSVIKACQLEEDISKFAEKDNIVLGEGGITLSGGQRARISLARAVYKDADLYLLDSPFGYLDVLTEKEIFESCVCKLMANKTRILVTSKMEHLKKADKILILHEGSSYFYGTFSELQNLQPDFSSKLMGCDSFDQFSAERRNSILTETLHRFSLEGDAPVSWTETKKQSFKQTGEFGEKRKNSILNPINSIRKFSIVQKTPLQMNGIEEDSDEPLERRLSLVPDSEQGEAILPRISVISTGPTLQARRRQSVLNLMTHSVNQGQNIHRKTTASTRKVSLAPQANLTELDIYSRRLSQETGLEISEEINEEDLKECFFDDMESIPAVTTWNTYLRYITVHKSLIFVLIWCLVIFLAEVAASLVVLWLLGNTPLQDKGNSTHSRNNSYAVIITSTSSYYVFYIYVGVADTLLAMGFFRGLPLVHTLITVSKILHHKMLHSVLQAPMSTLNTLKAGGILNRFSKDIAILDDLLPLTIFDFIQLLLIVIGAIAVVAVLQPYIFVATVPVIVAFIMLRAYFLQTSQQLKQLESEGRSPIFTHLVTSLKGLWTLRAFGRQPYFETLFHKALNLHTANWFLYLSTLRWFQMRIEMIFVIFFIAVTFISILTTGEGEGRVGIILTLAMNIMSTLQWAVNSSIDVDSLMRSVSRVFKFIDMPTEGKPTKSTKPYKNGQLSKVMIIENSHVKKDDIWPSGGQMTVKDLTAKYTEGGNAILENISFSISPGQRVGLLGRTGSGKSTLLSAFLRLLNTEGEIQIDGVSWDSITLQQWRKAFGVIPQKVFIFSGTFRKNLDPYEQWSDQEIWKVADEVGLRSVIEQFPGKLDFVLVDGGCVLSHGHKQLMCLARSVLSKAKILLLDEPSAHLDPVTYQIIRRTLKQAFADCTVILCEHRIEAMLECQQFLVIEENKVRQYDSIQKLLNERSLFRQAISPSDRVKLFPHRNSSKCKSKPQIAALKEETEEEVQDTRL

`NC(N)=Nc1ccc(C[C@@H](NC(=O)c2ccc3ccccc3c2OCc2ccc(C(F)(F)F)cc2)C(=O)O)cc1` [Example 105, (R)-3-(4-((diaminomethylene)amino)phenyl)-2-(1-((4-(trifluoromethyl)benzyl)oxy)-2-naphthamido)propanoic Acid]: the maximal response (Emax) worked out at 18.8%.

On to `N#Cc1ccc(C[C@H](NC(=O)c2ccc3ccccc3c2OCc2ccc(C(F)(F)F)cc2)C(=O)O)cc1` [Example 107, (S)-3-(4-cyanophenyl)-2-(1-((4-(trifluoromethyl)benzyl)oxy)-2-naphthamido)propanoic Acid], for which the EC50 came out at 10.9 µM and the Emax stood at 63.4%.

Regarding `CC(C)(C)C[C@H](NC(=O)c1ccc2ccccc2c1OCc1ccc(OC(F)F)cc1)C(=O)O` [Example 108, (S)-2-(1-((4-(difluoromethoxy)benzyl)oxy)-2-naphthamido)-4,4-dimethylpentanoic Acid], the Emax worked out at 4.7%.

Regarding `CC(C)(C)C[C@H](NC(=O)c1ccc2cc(F)ccc2c1OCC1CCC(F)(F)CC1)C(=O)O` [Example 109, (S)-2-(1-((4,4-difluorocyclohexyl)methoxy)-6-fluoro-2-naphthamido)-4,4-dimethylpentanoic Acid], the EC50 was 14.2 µM and the maximal response (Emax) was 52.7%.

Take `CC(C)(C)C[C@H](NC(=O)c1ccc2cc(F)ccc2c1OCc1ccc(S(F)(F)(F)(F)F)cc1)C(=O)O` [Example 112, (S)-2-(6-fluoro-1-((4-(pentafluoro-16-sulfanyl)benzyl)oxy)-2-naphthamido)-4,4-dimethylpentanoic Acid]: the response was half-maximal at 1.9 µM (EC50) and the Emax amounted to 58.1%.

As for `O=C(N[C@H](C(=O)O)C1CCCC1)c1ccc2cc(F)ccc2c1OCc1ccc(S(F)(F)(F)(F)F)cc1` [Example 113, (S)-2-cyclopentyl-2-(6-fluoro-1-((4-(pentafluoro-16-sulfanyl)benzyl)oxy)-2-naphthamido)acetic Acid], the EC50 was determined as 3.7 µM and the Emax was found to be 58.2%.

Regarding `CC(C)(C)C[C@H](NC(=O)c1ccc2cc(F)ccc2c1OCc1ccc(SC(F)(F)F)cc1)C(=O)O` [Example 117, (S)-2-(6-fluoro-1-((4-((trifluoromethyl)thio)benzyl)oxy)-2-naphthamido)-4,4-dimethylpentanoic Acid], the EC50 was determined as 1.6 µM and the Emax worked out at 47%.

`COC(C)(C)[C@H](NC(=O)c1ccc2cc(F)ccc2c1OCc1ccc(SC(F)(F)F)cc1)C(=O)O` [Example 118, (S)-2-(6-fluoro-1-((4-((trifluoromethyl)thio)benzyl)oxy)-2-naphthamido)-3-methoxy-3-methylbutanoic Acid] registered an EC50 of 2.8 µM and an Emax of 71%.

The molecule `O=C(N[C@@H](Cc1ccccc1)C(=O)O)c1ccc2ccccc2c1OCc1ccc2c(c1)OCO2` [Example 121, (1-(benzo[d][1,3]dioxol-5-ylmethoxy)-2-naphthoyl)-L-phenylalanine] came in with an EC50 of 0.2 µM and an Emax of 3.7%.

For the molecule `O=C(N[C@@H](Cc1ccccc1)C(=O)O)c1ccc2ccccc2c1OCc1ccc(Br)cc1` [Example 122, (1-((4-bromobenzyl)oxy)-2-naphthoyl)-L-phenylalanine], the response was half-maximal at 0.3 µM (EC50) and the Emax came to 24.5%.

The molecule `CC(Oc1c(C(=O)N[C@@H](Cc2ccccc2)C(=O)O)ccc2ccccc12)c1ccc(Br)cc1` (stereo partly drawn) [Example 123, (1-(1-(4-bromophenyl)ethoxy)-2-naphthoyl)-L-phenylalanine] registered an Emax of 4%.

With `CC(Oc1c(C(=O)N[C@@H](Cc2ccccc2)C(=O)O)ccc2ccccc12)c1ccc(C(F)(F)F)cc1` (stereo partly drawn) [Example 124, (1-(1-(4-(trifluoromethyl)phenyl)ethoxy)-2-naphthoyl)-L-phenylalanine], the EC50 was found to be 1.3 µM and the Emax is 10.5%.

Regarding `N#Cc1ccc(COc2c(C(=O)N[C@@H](Cc3ccccc3)C(=O)O)ccc3ccccc23)cc1` [Example 125, (1-((4-cyanobenzyl)oxy)-2-naphthoyl)-L-phenylalanine], the response was half-maximal at 20.3 µM (EC50) and the maximal effect (Emax) was 31.5%.

`O=C(N[C@H](C(=O)O)C(c1ccccc1)c1ccccc1)c1ccc2ccccc2c1OCc1ccc(C(F)(F)F)cn1` [Example 132, (S)-3,3-diphenyl-2-(1-((5-(trifluoromethyl)pyridin-2-yl)methoxy)-2-naphthamido)propanoic Acid] showed an EC50 of 11.6 µM and an Emax of 49.2%.

`CO[C@@H](C)[C@H](NC(=O)c1ccc2ccccc2c1OCc1ccc(C(F)(F)F)cc1)C(=O)O` [Example 135, O-methyl-N-(1-((4-(trifluoromethyl)benzyl)oxy)-2-naphthoyl)-L-allothreonine] showed a half-maximal effective concentration (EC50) of 4.7 µM and an Emax of 93.5%.

Take `COCC[C@H](NC(=O)c1ccc2ccccc2c1OCc1ccc(C(F)(F)F)cc1)C(=O)O` [Example 137, O-methyl-N-(1-((4-(trifluoromethyl)benzyl)oxy)-2-naphthoyl)-L-homoserine]: the EC50 was 16.4 µM and the Emax was 38.4%.

In the case of `CC(C)(O)[C@H](NC(=O)c1ccc2ccccc2c1OCc1ccc(C(F)(F)F)cc1)C(=O)O` [Example 138, (S)-3-hydroxy-3-methyl-2-(1-((4-(trifluoromethyl)benzyl)oxy)-2-naphthamido)butanoic Acid], the EC50 was 16.4 µM and the Emax stood at 22.4%.

In turn, `C[C@@H](OCc1ccccc1)C(NC(=O)c1ccc2ccccc2c1OCc1ccc(C(F)(F)F)cc1)C(=O)O` (stereo partly drawn) [Example 144, (3R)-3-(benzyloxy)-2-(1-((4-(trifluoromethyl)benzyl)oxy)-2-naphthamido)butanoic Acid] showed an EC50 of 4.5 µM and an Emax of 140%.

`Cc1cc(COc2c(C(=O)NC(C(=O)O)[C@@H](C)OCc3ccccc3)ccc3ccccc23)no1` (stereo partly drawn) [Example 145, (3R)-3-(benzyloxy)-2-(1-((5-methylisoxazol-3-yl)methoxy)-2-naphthamido)butanoic Acid] came in with an EC50 of 12 µM and an Emax of 72.6%.

`C[C@@H](OCc1ccccc1)C(NC(=O)c1ccc2ccccc2c1OCC1CCC(CO)CC1)C(=O)O` (stereo partly drawn) [Example 146, (3R)-3-(benzyloxy)-2-(1-((4-(hydroxymethyl)cyclohexyl)methoxy)-2-naphthamido)butanoic Acid] had a half-maximal effective concentration (EC50) of 17.4 µM and an Emax of 62.2%.

Consider `C[C@@H](OCc1ccccc1)C(NC(=O)c1ccc2ccccc2c1OCC1CC2CCC1C2)C(=O)O` (stereo partly drawn) [Example 147, (3R)-3-(benzyloxy)-2-(1-(bicyclo[2.2.1]heptan-2-ylmethoxy)-2-naphthamido)butanoic Acid], for which the midpoint of the response, the EC50, lay at 16.8 µM and the Emax turned out to be 68.9%.

For the molecule `C[C@@H](OCc1ccccc1)C(NC(=O)c1ccc2ccccc2c1OCc1nc2ccccc2s1)C(=O)O` (stereo partly drawn) [Example 148, (3R)-2-(1-(benzo[d]thiazol-2-ylmethoxy)-2-naphthamido)-3-(benzyloxy)butanoic Acid], the midpoint of the response, the EC50, lay at 18.3 µM and the Emax worked out at 65.2%.

Turning to `O=C(N[C@H](C(=O)O)C1CCCC1)c1ccc2ccccc2c1OCc1ccc(S(=O)(=O)C(F)(F)F)cc1` [Example 156, (S)-2-cyclopentyl-2-(1-((4-((trifluoromethyl)sulfonyl)benzyl)oxy)-2-naphthamido)acetic Acid], the EC50 was 1.9 µM and the Emax came out at 51.7%.

Regarding `CC(C)(C)C[C@H](NC(=O)c1ccc2ccccc2c1OCc1ccc(S(=O)(=O)C(F)(F)F)cc1)C(=O)O` [Example 157, (S)-4,4-dimethyl-2-(1-((4-((trifluoromethyl)sulfonyl)benzyl)oxy)-2-naphthamido)pentanoic Acid], it took 7.1 µM to reach a half-maximal effect (EC50) and the Emax was 55%.

As to `CC(C)(C)C[C@H](NC(=O)c1ccc2ccccc2c1OCc1ccc(S(C)(=O)=O)cc1)C(=O)O` [Example 158, (S)-4,4-dimethyl-2-(1-((4-(methylsulfonyl)benzyl)oxy)-2-naphthamido)pentanoic Acid], the Emax came out at 13%.

`CS(=O)(=O)c1ccc(COc2c(C(=O)N[C@H](C(=O)O)C3CCCC3)ccc3ccccc23)cc1` [Example 159, (S)-2-cyclopentyl-2-(1-((4-(methylsulfonyl)benzyl)oxy)-2-naphthamido)acetic Acid] returned an EC50 of 6.7 µM and an Emax of 22.8%.

The record behind these values is patent publication US12630498B2 (Genzyme Corporation, priority 2019, dated 2026).
